In publication PMC12454493, “Insight on novel sulfamoylphenyl pyrazole derivatives as anticancer carbonic anhydrase inhibitors” (Molecular Diversity, 2024):

Key:
Type in all cases: cell-based
HL-60(TB) = assay: NCI-60 one-dose SRB screen (Leukemia); conditions: Homo sapiens, single dose 10 µM, 48 h, read-out: Growth inhibition percent (GI %)
Description: (§1) The National Cancer Institute (NCI) Developmental Therapeutic Program (www.dtp.nci.nih.gov) selected the 20 novel synthesized compounds 4a-e, 5a-e, 6a-c, 9a-e, 10 and 11 to test for their anticancer activity at a single dose of 10 µM using SRB assay. […] Supplementary Data S3; Table S1 presents the detailed screening results of the most promising compounds. The preliminary screening’s detailed results for the remaining compounds are elucidated in the (Supplementary Data S3; Table S2).
(§2) The guidelines of the Drug Evaluation Branch’s protocol at the NCI in Bethesda served as the basis for the in vitro anticancer screening assays. at one dose 10 µM against a panel of 60 cancer cell lines. The human tumor cell lines used belonged to nine panels: leukemia, melanoma, lung, colon, CNS, ovarian, renal, prostate and breast cancers using the sulforhodamine B (SRB) assay in a 48 h drug exposure protocol.

SR = assay: NCI-60 one-dose SRB screen (Leukemia); conditions: Homo sapiens, single dose 10 µM, 48 h, read-out: Growth inhibition percent (GI %)
Description: as §1, §2

MOLT-4 = assay: NCI-60 one-dose SRB screen (Leukemia); conditions: Homo sapiens, single dose 10 µM, 48 h, read-out: Growth inhibition percent (GI %)
Description: as §1, §2

RPMI-8226 = assay: NCI-60 one-dose SRB screen (Leukemia); conditions: Homo sapiens, single dose 10 µM, 48 h, read-out: Growth inhibition percent (GI %)
Description: as §1, §2

K-562 = assay: NCI-60 one-dose SRB screen (Leukemia); conditions: Homo sapiens, K562, single dose 10 µM, 48 h, read-out: Growth inhibition percent (GI %)
Description: as §1, §2

CCRF-CEM = assay: NCI-60 one-dose SRB screen (Leukemia); conditions: Homo sapiens, single dose 10 µM, 48 h, read-out: Growth inhibition percent (GI %)
Description: as §1, §2

SNB-75 = assay: NCI-60 one-dose SRB screen (CNS Cancer); conditions: Homo sapiens, single dose 10 µM, 48 h, read-out: Growth inhibition percent (GI %)
Description: as §1, §2

SF-268 = assay: NCI-60 one-dose SRB screen (CNS Cancer); conditions: Homo sapiens, single dose 10 µM, 48 h, read-out: Growth inhibition percent (GI %)
Description: as §1, §2

SNB-19 = assay: NCI-60 one-dose SRB screen (CNS Cancer); conditions: Homo sapiens, single dose 10 µM, 48 h, read-out: Growth inhibition percent (GI %)
Description: as §1, §2

SF-295 = assay: NCI-60 one-dose SRB screen (CNS Cancer); conditions: Homo sapiens, single dose 10 µM, 48 h, read-out: Growth inhibition percent (GI %)
Description: as §1, §2

SF-539 = assay: NCI-60 one-dose SRB screen (CNS Cancer); conditions: Homo sapiens, single dose 10 µM, 48 h, read-out: Growth inhibition percent (GI %)
Description: as §1, §2

U251 = assay: NCI-60 one-dose SRB screen (CNS Cancer); conditions: Homo sapiens, U-251, single dose 10 µM, 48 h, read-out: Growth inhibition percent (GI %)
Description: as §1, §2

NCI-H522 = assay: NCI-60 one-dose SRB screen (Non-Small Cell Lung Cancer); conditions: Homo sapiens, single dose 10 µM, 48 h, read-out: Growth inhibition percent (GI %)
Description: as §1, §2

HOP-92 = assay: as above; conditions: Homo sapiens, single dose 10 µM, 48 h, read-out: Growth inhibition percent (GI %)
Description: as §1, §2

NCI-H226 = assay: as above; conditions: Homo sapiens, single dose 10 µM, 48 h, read-out: Growth inhibition percent (GI %)
Description: as §1, §2

A549/ATCC = assay: as above; conditions: Homo sapiens, single dose 10 µM, 48 h, read-out: Growth inhibition percent (GI %)
Description: as §1, §2

NCI-H460 = assay: as above; conditions: Homo sapiens, single dose 10 µM, 48 h, read-out: Growth inhibition percent (GI %)
Description: as §1, §2

HOP-62 = assay: as above; conditions: Homo sapiens, single dose 10 µM, 48 h, read-out: Growth inhibition percent (GI %)
Description: as §1, §2

EKVX = assay: as above; conditions: Homo sapiens, single dose 10 µM, 48 h, read-out: Growth inhibition percent (GI %)
Description: as §1, §2

NCI-H23 = assay: as above; conditions: Homo sapiens, single dose 10 µM, 48 h, read-out: Growth inhibition percent (GI %)
Description: as §1, §2

NCI-H322M = assay: as above; conditions: Homo sapiens, single dose 10 µM, 48 h, read-out: Growth inhibition percent (GI %)
Description: as §1, §2

OVCAR-4 = assay: NCI-60 one-dose SRB screen (Ovarian cancer); conditions: Homo sapiens, single dose 10 µM, 48 h, read-out: Growth inhibition percent (GI %)
Description: as §1, §2

OVCAR-5 = assay: NCI-60 one-dose SRB screen (Ovarian cancer); conditions: Homo sapiens, single dose 10 µM, 48 h, read-out: Growth inhibition percent (GI %)
Description: as §1, §2

OVCAR-8 = assay: NCI-60 one-dose SRB screen (Ovarian cancer); conditions: Homo sapiens, single dose 10 µM, 48 h, read-out: Growth inhibition percent (GI %)
Description: as §1, §2

IGROV1 = assay: NCI-60 one-dose SRB screen (Ovarian cancer); conditions: Homo sapiens, IGROV-1, single dose 10 µM, 48 h, read-out: Growth inhibition percent (GI %)
Description: as §1, §2

OVCAR-3 = assay: NCI-60 one-dose SRB screen (Ovarian cancer); conditions: Homo sapiens, single dose 10 µM, 48 h, read-out: Growth inhibition percent (GI %)
Description: as §1, §2

SK-OV-3 = assay: NCI-60 one-dose SRB screen (Ovarian cancer); conditions: Homo sapiens, single dose 10 µM, 48 h, read-out: Growth inhibition percent (GI %)
Description: as §1, §2

NCI/ADR-RES = assay: NCI-60 one-dose SRB screen (Ovarian cancer); conditions: Homo sapiens, single dose 10 µM, 48 h, read-out: Growth inhibition percent (GI %)
Description: as §1, §2

HT29 = assay: NCI-60 one-dose SRB screen (Colon Cancer); conditions: Homo sapiens, HT-29, single dose 10 µM, 48 h, read-out: Growth inhibition percent (GI %)
Description: as §1, §2

SW-620 = assay: NCI-60 one-dose SRB screen (Colon Cancer); conditions: Homo sapiens, single dose 10 µM, 48 h, read-out: Growth inhibition percent (GI %)
Description: as §1, §2

CCOC(=O)c1ccc(NC(=O)COC(=O)c2cn(-c3ccc(S(N)(=O)=O)cc3)nc2-c2ccccc2)cc1 [Compound 5a, 2-[(4-(Ethoxycarbonyl)phenyl)amino]-2-oxoethyl 3-phenyl-1-(4-sulfamoylphenyl)-1H-pyrazole-4-carboxylate] was tested, and the inhibition at 10 µM (HL-60(TB)) was 92.1%, the inhibition at 10 µM (SR) was 82.1% and the inhibition at 10 µM (MOLT-4) was 89%. For the same compound, the inhibition at 10 µM (RPMI-8226) was 86.8%, the inhibition at 10 µM (K-562) was 78.7% and the inhibition at 10 µM (CCRF-CEM) was 82%. The inhibition at 10 µM (SNB-75) was 60.6%, the inhibition at 10 µM (SF-268) was 52.2% and the inhibition at 10 µM (SNB-19) was 60.9%. The inhibition at 10 µM (SF-295) was 60%, the inhibition at 10 µM (SF-539) was 46% and the inhibition at 10 µM (U251) was 58.5%. For the same compound, the inhibition at 10 µM (NCI-H522) was 76.8%, the inhibition at 10 µM (HOP-92) was 38.2% and the inhibition at 10 µM (NCI-H226) was 54.7%. For the same compound, the inhibition at 10 µM (A549/ATCC) was 60.3%, the inhibition at 10 µM (NCI-H460) was 63.5% and the inhibition at 10 µM (HOP-62) was 19.3%. It also gave an inhibition at 10 µM (EKVX) of 49%, an inhibition at 10 µM (NCI-H23) of 51.7% and an inhibition at 10 µM (NCI-H322M) of 32.4%. It also gave an inhibition at 10 µM (OVCAR-4) of 46.6%, an inhibition at 10 µM (OVCAR-5) of 28.7% and an inhibition at 10 µM (OVCAR-8) of 39.5%. The inhibition at 10 µM (IGROV1) was 45.4%, the inhibition at 10 µM (OVCAR-3) was 42.7% and the inhibition at 10 µM (SK-OV-3) was 5.67%. For the same compound, the inhibition at 10 µM (NCI/ADR-RES) was 16.6%, the inhibition at 10 µM (HT29) was 78.8% and the inhibition at 10 µM (SW-620) was 47.1%.
